In assay [1] the target is human RORγt ligand binding domain (RORγt LBD) (Homo sapiens (Human), UniProt P51449). The assay is described as follows: RORγt ThermoFluor assay. From the text: ThermoFluor® is a fluorescence based assay that estimates ligand binding affinities by measuring the effect of a ligand on protein thermal stability (Pantoliano, M. W., Petrella, E. C., Kwasnoski, J. D., Lobanov, V. S., Myslik, J., Graf, E., Carver, T., Asel, E., Springer, B. A., Lane, P., and Salemme, F. R. (2001) High-density miniaturized thermal shift assays as a general strategy for drug discovery. J Biomol Screen 6, 429-40, and Matulis, D., Kranz, J. K., Salemme, F. R., and Todd, M. J. (2005) Thermodynamic stability of carbonic anhydrase: measurements of binding affinity and stoichiometry using ThermoFluor. Biochemistry 44, 5258-66). This approach is applicable to a wide variety of systems, and rigorous in theoretical interpretation through quantitation of equilibrium binding constants (KD).
human RORγt ligand binding domain (RORγt LBD), sequence (P51449 other isoform, or with tags, fused parts or gaps): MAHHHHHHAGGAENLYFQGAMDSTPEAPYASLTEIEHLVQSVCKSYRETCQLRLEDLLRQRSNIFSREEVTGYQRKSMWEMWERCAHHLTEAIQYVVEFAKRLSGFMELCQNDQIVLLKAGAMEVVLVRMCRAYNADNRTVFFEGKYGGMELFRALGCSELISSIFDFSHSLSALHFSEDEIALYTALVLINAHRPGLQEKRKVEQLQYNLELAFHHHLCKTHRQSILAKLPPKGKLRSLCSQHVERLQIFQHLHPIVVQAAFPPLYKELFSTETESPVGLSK
The shift in the melting point described as a ΔTm is proportional to the concentration and affinity of the ligand. The compound potency may be compared as a rank order of either values at a single compound concentration or in terms of KD values, estimated from concentration response curves.
RORγt ThermoFluor® Assay Construct
For the RORγt construct used in the ThermoFluor® assay, numbering for the nucleotide sequences was based on the reference sequence for human RORγt, transcript variant 2, NCBI Accession: NM 001001523.1 (SEQ ID NO:1). Nucleotides 850-1635 (SEQ ID NO:2) coding for the wild type human RORγt ligand binding domain (RORγt LBD) were cloned into the pHIS1 vector, a modified pET E. coli expression vector (Accelagen, San Diego), containing an in-frame N-terminal His-tag and a TurboTEV protease cleavage site (ENLYFQG, SEQ ID NO:3) upstream of the cloned insert sequence. The amino acid sequence for the RORγt construct used in the Thermofluor® assay is shown as SEQ ID NO:4.
ThermoFluor® experiments were carried out using instruments owned by Janssen Research and Development, L.L.C. through its acquisition of 3-Dimensional Pharmaceuticals, Inc. 1,8-ANS (Invitrogen) was used as a fluorescent dye. Protein and compound solutions are dispensed into black 384-well polypropylene PCR microplates (Abgene) and overlayed with silicone oil (1 μL, Fluka, type DC 200) to prevent evaporation.
Bar-coded assay plates are robotically loaded onto a thermostatically controlled PCR-type thermal block and then heated at a typical ramp-rate of 1° C./min for all experiments. Fluorescence was measured by continuous illumination with UV light (Hamamatsu LC6) supplied via fiber optic and filtered through a band-pass filter (380-400 nm; >6 OD cutoff). Fluorescence emission of the entire 384-well plate was detected by measuring light intensity using a CCD camera (Sensys, Roper Scientific) filtered to detect 500±25 nm, resulting in simultaneous and independent readings of all 384 wells. Images were collected at each temperature, and the sum of the pixel intensity in a given area of the assay plate was recorded versus temperature. Reference wells contained RORγt without compounds, and the assay conditions were as follows:
Project compounds were arranged in a pre-dosed mother plate (Greiner Bio-one) wherein compounds are serially diluted in 100% DMSO by 1:2 from a high concentration of 10 mM over 12 columns within a series (column 12 is a reference well containing DMSO, no compound). The compounds were robotically dispensed directly into assay plates (1×=46 nL) using a Hummingbird capillary liquid handling instrument (Digilab). Following compound dispense, protein and dye in buffer was added to achieve the final assay volume of 3 μL, followed by 1 μL of silicone oil.
The binding affinity was estimated as described previously (Matulis, D., Kranz, J. K., Salemme, F. R., and Todd, M. J. (2005) Thermodynamic stability of carbonic anhydrase: measurements of binding affinity and stoichiometry using ThermoFluor®. Biochemistry 44, 5258-66) using the following thermodynamic parameters of protein unfolding:
Reference RORγt Tm: 47.8° C.
In general terms: In DSF a fluorescence change marks the thermal transition of the protein.

Assay [2] has as its target full-length human RORγt (GAL4-DBD-RORγt fusion) in HEK293T cells (Homo sapiens (Human), UniProt P51449). The assay is described as follows: RORγt (full-length human) reporter assay, conditions A or B. It is filed as cell-based. The settings on record: for IC50: HEK293T cells, read-out: RORγt (FL) Reporter Assay A or B, IC50. The protocol:
RORγt (Full-Length Human) Reporter Assay:
(§1) HEK293T cells were plated at 35,000 per well in 96-well plate in medium of DMEM with 10% FBS. […] After overnight (16 to 20 hours) incubation, media were removed and cells were lysed with 50 μL Glo Lysis Buffer (Promega) for 10-15 minutes followed by 10 minute incubation with 50 μL Dual Glo reagent (Promega) at room temperature. Firefly luciferase luminescence was measured using a BMG Pherastar plate reader. To each well, 50 μL Stop and Glo reagent was added and incubated for 10 minutes at room temperature. Renilla luminescence was measured using a BMG Pherastar plate reader. To calculate the effect of compounds on RORγt activity, firefly values were normalized against values of DMSO only and values of reference compound at saturating concentration, then further normalized against Renilla signals. IC50s were generated by plotting final Renilla normalized data against compound concentration and percent inhibition was calculated against DMSO control.
as §1, with “at 8750 cells” for “at 35,000”, “in 384-well” for “in 96-well”, “with 20” for “with 50”, “well, 20” for “well, 50”
In general terms: In a reporter assay the amount or activity of a reporter protein is the signal.

Where [3] appears, read: HEK-293T, 3 μM compound concentration (footnote *), read-out: RORγt (FL) Reporter Assay A or B, % inhibition.

Marks after values point to notes of the source that are not given here.

The source of these data is patent US11034658B2, “Pyridinyl pyrazoles as modulators of RORγT” (Janssen Pharmaceutica NV, priority 2018, dated 2021).

The term Kd denotes a measure of binding affinity in units of concentration. High values mean weaker binding, low ones tighter binding. Broadly, the IC50 is the concentration needed to halve the response being measured. In general, inhibition refers to the drop in the measured response relative to a control, in per cent.

full-length human RORγt (GAL4-DBD-RORγt fusion) in HEK293T cells, sequence (P51449 other isoform, or with tags, fused parts or gaps): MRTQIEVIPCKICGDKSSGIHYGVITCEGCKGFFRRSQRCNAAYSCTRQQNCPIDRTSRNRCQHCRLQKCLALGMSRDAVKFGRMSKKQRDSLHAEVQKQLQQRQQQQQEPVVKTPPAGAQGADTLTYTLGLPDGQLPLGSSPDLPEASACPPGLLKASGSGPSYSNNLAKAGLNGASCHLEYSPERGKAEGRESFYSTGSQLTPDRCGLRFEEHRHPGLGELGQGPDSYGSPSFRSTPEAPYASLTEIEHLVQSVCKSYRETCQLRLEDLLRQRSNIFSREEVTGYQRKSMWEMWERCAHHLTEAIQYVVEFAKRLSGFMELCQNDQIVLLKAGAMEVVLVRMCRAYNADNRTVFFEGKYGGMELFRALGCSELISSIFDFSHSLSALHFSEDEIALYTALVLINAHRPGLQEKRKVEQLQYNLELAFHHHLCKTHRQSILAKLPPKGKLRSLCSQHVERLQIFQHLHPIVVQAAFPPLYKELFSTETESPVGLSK

In turn, `CCn1nc(C(=O)NC[C@@]2(O)CC[C@H](S(C)(=O)=O)C[C@@H]2O)c(Cl)c1-c1cnc(CC(C)(C)C(F)(F)F)cc1OC(F)F` (stereo in doubt) [Example 4, 4-Chloro-5-(4-(difluoromethoxy)-6-(3,3,3-trifluoro-2,2-dimethylpropyl)pyridin-3-yl)-N-(((1S*,2S*,4S*)-1,2-dihydroxy-4-(methylsulfonyl)cyclohexyl)methyl)-1-ethyl-1H-pyrazole-3-carboxamide] yielded a Kd in assay [1] of 9.1 nM. Also, in assay [2], the half-maximal inhibitory concentration (IC50) was 55 nM. Besides, the inhibition at 3 µM in assay [2] (setting [3]) is 100%.
In assay [1], `CCn1nc(C(=O)NC[C@@]2(O)CC[C@H](S(C)(=O)=O)C[C@@H]2O)c(Cl)c1-c1cnc(CC(C)(C)C(F)F)cc1OC(F)F` (stereo in doubt) [Example 39, 4-Chloro-5-(6-(3,3-difluoro-2,2-dimethylpropyl)-4-(difluoromethoxy)pyridin-3-yl)-N-(((1S*,2S*,4S*)-1,2-dihydroxy-4-(methylsulfonyl)cyclohexyl)methyl)-1-ethyl-1H-pyrazole-3-carboxamide] showed a Kd of 40 nM. In addition, the IC50 in assay [2] is 730 nM. For the same compound, the inhibition at 3 µM in assay [2] (setting [3]) was 72%.
Compound `CCn1nc(C(=O)NC[C@]2(O)CC[C@@H](S(C)(=O)=O)C[C@H]2O)c(Cl)c1-c1cnc(CC(C)(C)C(F)F)cc1OC(F)F` (stereo in doubt) [Example 40, 4-Chloro-5-(6-(3,3-difluoro-2,2-dimethylpropyl)-4-(difluoromethoxy)pyridin-3-yl)-N-(((1R*,2R*,4R*)-1,2-dihydroxy-4-(methylsulfonyl)cyclohexyl)methyl)-1-ethyl-1H-pyrazole-3-carboxamide] displayed a Kd in assay [1] of 40 nM. Also, in assay [2], the IC50 was found to be 570 nM. Besides, the inhibition at 3 µM in assay [2] (setting [3]) was 84%.
Compound `CCn1nc(C(=O)NC[C@@]2(O)CC[C@H](S(C)(=O)=O)C[C@@H]2O)c(C)c1-c1cnc(CC(C)(C)C(F)F)cc1OC(F)F` (stereo in doubt) [Example 43, 5-(6-(3,3-Difluoro-2,2-dimethylpropyl)-4-(difluoromethoxy)pyridin-3-yl)-N-(41S*,2S*,4S*)-1,2-dihydroxy-4-(methylsulfonyl)cyclohexyl)methyl)-1-ethyl-4-methyl-1H-pyrazole-3-carboxamide] registered a Kd in assay [1] of 66 nM. Further, in assay [2], the IC50 worked out at 320 nM. Also, in assay [2] (HEK-293T, 1 μM compound concentration (footnote ***), read-out: RORγt (FL) Reporter Assay A or B, % inhibition), the inhibition at 1 µM worked out at 84%.
As for `CCn1nc(C(=O)NC[C@]2(O)CC[C@@H](S(C)(=O)=O)C[C@H]2O)c(C)c1-c1cnc(CC(C)(C)C(F)F)cc1OC(F)F` (stereo in doubt) [Example 44, 5-(6-(3,3-Difluoro-2,2-dimethylpropyl)-4-(difluoromethoxy)pyridin-3-yl)-N-(((1R*,2R*,4R*)-1,2-dihydroxy-4-(methylsulfonyl)cyclohexyl)methyl)-1-ethyl-4-methyl-1H-pyrazole-3-carboxamide], in assay [1], binding was characterised by a dissociation constant (Kd) of 69 nM. For the same compound, the IC50 in assay [2] was 890 nM. The inhibition at 3 µM in assay [2] (setting [3]) was found to be 85%.
`CCn1nc(C(=O)NC[C@]2(O)CC[C@@H](S(C)(=O)=O)C[C@H]2O)c(Cl)c1-c1ccc(CC(C)(C)C(F)(F)F)nc1OC(F)F` (stereo in doubt) [Example 47, 4-Chloro-5-(2-(difluoromethoxy)-6-(3,3,3-trifluoro-2,2-dimethylpropyl)pyridin-3-yl)-N-(((1R*,2R*,4R*)-1,2-dihydroxy-4-(methylsulfonyl)cyclohexyl)methyl)-1-ethyl-1H-pyrazole-3-carboxamide] had a dissociation constant (Kd) in assay [1] of 1.7 nM. For the same compound, the IC50 in assay [2] worked out at 44 nM. Moreover, in assay [2] (setting [3]), the inhibition at 3 µM stood at 95%.
On to `CCn1nc(C(=O)NC[C@@]2(O)CC[C@H](S(C)(=O)=O)C[C@@H]2O)c(Cl)c1-c1ccc(CC(C)(C)C(F)(F)F)nc1OC(F)F` (stereo in doubt) [Example 48, 4-Chloro-5-(2-(difluoromethoxy)-6-(3,3,3-trifluoro-2,2-dimethylpropyl)pyridin-3-yl)-N-(((1S*,2S*,4S*)-1,2-dihydroxy-4-(methylsulfonyl)cyclohexyl)methyl)-1-ethyl-1H-pyrazole-3-carboxamide], for which the Kd in assay [1] turned out to be 2 nM. Further, in assay [2], the IC50 stood at 5.7 nM. Besides, the inhibition at 3 µM in assay [2] (setting [3]) was found to be 101%.
For `CCn1nc(C(=O)NC[C@]2(O)CC[C@@H](S(N)(=O)=O)CC2)c(Cl)c1-c1cnc(CC(C)(C)C(F)(F)F)cc1OC(F)F` [Example 1, 4-Chloro-5-(4-(difluoromethoxy)-6-(3,3,3-trifluoro-2,2-dimethylpropyl)pyridin-3-yl)-1-ethyl-N-(((1s,4s)-1-hydroxy-4-sulfamoylcyclohexyl)methyl)-1H-pyrazole-3-carboxamide], the Kd in assay [1] amounted to 11 nM. In addition, the IC50 in assay [2] was determined as 110 nM. In assay [2] (setting [3]), the inhibition at 3 µM was determined as 116%.
With `CCn1nc(C(=O)NC[C@]2(O)CC[C@@H](S(N)(=O)=O)CC2)c(C)c1-c1cnc(CC(C)(C)C(F)(F)F)cc1OC(F)F` [Example 2, 5-(4-(Difluoromethoxy)-6-(3,3,3-trifluoro-2,2-dimethylpropyl)pyridin-3-yl)-1-ethyl-N-(((1s,4s)-1-hydroxy-4-sulfamoylcyclohexyl)methyl)-4-methyl-1H-pyrazole-3-carboxamide], the Kd in assay [1] stood at 29 nM. In addition, the IC50 in assay [2] was found to be 930 nM. Further, in assay [2] (setting [3]), the inhibition at 3 µM came to 104%.
Compound `CCn1nc(C(=O)NC[C@H]2CC[C@H](S(=O)(=O)NC(C)=O)CC2)c(Cl)c1-c1cnc(CC(C)(C)C(F)(F)F)cc1OC(F)F` [Example 5, N-(((1r,4r)-4-(N-acetylsulfamoyl)cyclohexyl)methyl)-4-chloro-5-(4-(difluoromethoxy)-6-(3,3,3-trifluoro-2,2-dimethylpropyl)pyridin-3-yl)-1-ethyl-1H-pyrazole-3-carboxamide] yielded a Kd in assay [1] of 8.7 nM. The “RORγt (FL) Reporter Assay A or B, % inhibition” value in assay [2] (3 μM compound concentration (footnote *)) is reported as 79* %. Also, the IC50 in assay [2] was 430 nM.
